Measurements from PubChem BioAssay (NCI).
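Compound exposure: 48 hours, 5 concentrations, 96-well plates. The concentration for 50% growth inhibition is given as GI50. TGI: concentration producing complete growth inhibition.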

Assays:
Assay in all cases: DTP human tumour cell line panel, 48 h
786-0 renal = tested on: 786-0 renal
A498 renal = tested on: A498 renal
A549 NSCLC = tested on: A549 NSCLC
ACHN renal = tested on: ACHN renal
BT-549 breast = tested on: BT-549 breast
CAKI-1 renal = tested on: CAKI-1 renal
CCRF-CEM leukemia = tested on: CCRF-CEM leukemia
COLO 205 colon = tested on: COLO 205 colon
DU-145 prostate = tested on: DU-145 prostate
HCC-2998 colon = tested on: HCC-2998 colon
HCT-116 colon = tested on: HCT-116 colon
HCT-15 colon = tested on: HCT-15 colon
HL-60(TB) leukemia = tested on: HL-60(TB) leukemia
HOP-62 NSCLC = tested on: HOP-62 NSCLC
HOP-92 NSCLC = tested on: HOP-92 NSCLC
HS 578T breast = tested on: HS 578T breast
IGROV1 ovarian = tested on: IGROV1 ovarian
K-562 leukemia = tested on: K-562 leukemia
KM12 colon = tested on: KM12 colon
LOX IMVI melanoma = tested on: LOX IMVI melanoma
M14 melanoma = tested on: M14 melanoma
MCF7 breast = tested on: MCF7 breast
MDA-MB-231 breast = tested on: MDA-MB-231 breast
MOLT-4 leukemia = tested on: MOLT-4 leukemia
NCI-H226 lung = tested on: NCI-H226 lung
NCI-H23 lung = tested on: NCI-H23 lung
NCI-H460 lung = tested on: NCI-H460 lung
NCI-H522 lung = tested on: NCI-H522 lung
NCI/ADR-RES ovarian = tested on: NCI/ADR-RES ovarian
OVCAR-3 ovarian = tested on: OVCAR-3 ovarian
OVCAR-5 ovarian = tested on: OVCAR-5 ovarian
OVCAR-8 ovarian = tested on: OVCAR-8 ovarian
PC-3 prostate = tested on: PC-3 prostate
RPMI-8226 leukemia = tested on: RPMI-8226 leukemia
SF-268 CNS = tested on: SF-268 CNS
SF-295 CNS = tested on: SF-295 CNS
SF-539 CNS = tested on: SF-539 CNS
SK-MEL-2 melanoma = tested on: SK-MEL-2 melanoma
SK-MEL-28 melanoma = tested on: SK-MEL-28 melanoma
SK-MEL-5 melanoma = tested on: SK-MEL-5 melanoma
SK-OV-3 ovarian = tested on: SK-OV-3 ovarian
SN12C renal = tested on: SN12C renal
SNB-19 CNS = tested on: SNB-19 CNS
SR leukemia = tested on: SR leukemia
SW-620 colon = tested on: SW-620 colon
T-47D breast = tested on: T-47D breast
TK-10 renal = tested on: TK-10 renal
UACC-257 melanoma = tested on: UACC-257 melanoma
UACC-62 melanoma = tested on: UACC-62 melanoma
UO-31 renal = tested on: UO-31 renal

Question: `CCOc1ccc(Nc2nc(-c3c(C)nc4ncccn34)cs2)cc1` was tested. Which GI50 (786-0 renal) did it give?
Answer: 0.0392 µM

Question: And the TGI (786-0 renal)?
Answer: 18.4 µM

Question: And the GI50 (A498 renal)?
Answer: < 0.01 µM

Question: What about the TGI (A498 renal) of the same compound?
Answer: 0.0678 µM

Question: What about the GI50 (A549 NSCLC) of the same compound?
Answer: 0.0268 µM

Question: What about the TGI (A549 NSCLC) of the same compound?
Answer: 20.5 µM

Question: And the GI50 (ACHN renal)?
Answer: 0.0767 µM

Question: And the TGI (ACHN renal)?
Answer: 19.5 µM

Question: And the GI50 (BT-549 breast)?
Answer: 0.0268 µM

Question: And the TGI (BT-549 breast)?
Answer: 14.9 µM

Question: And the GI50 (CAKI-1 renal)?
Answer: 0.0144 µM

Question: And the TGI (CAKI-1 renal)?
Answer: 15.8 µM

Question: What about the GI50 (CCRF-CEM leukemia) of the same compound?
Answer: 0.0291 µM

Question: And the TGI (CCRF-CEM leukemia)?
Answer: 17.3 µM

Question: What about the GI50 (COLO 205 colon) of the same compound?
Answer: < 0.01 µM

Question: And the TGI (COLO 205 colon)?
Answer: 0.0404 µM

Question: What about the GI50 (DU-145 prostate) of the same compound?
Answer: 0.0431 µM

Question: What about the TGI (DU-145 prostate) of the same compound?
Answer: 19.2 µM

Question: What about the GI50 (HCC-2998 colon) of the same compound?
Answer: 0.0522 µM

Question: And the TGI (HCC-2998 colon)?
Answer: 15.7 µM

Question: What about the GI50 (HCT-116 colon) of the same compound?
Answer: 0.0221 µM

Question: What about the TGI (HCT-116 colon) of the same compound?
Answer: 11.6 µM

Question: What about the GI50 (HCT-15 colon) of the same compound?
Answer: 0.0467 µM

Question: And the TGI (HCT-15 colon)?
Answer: 15.4 µM

Question: What about the GI50 (HL-60(TB) leukemia) of the same compound?
Answer: 0.0216 µM

Question: What about the TGI (HL-60(TB) leukemia) of the same compound?
Answer: 0.0706 µM

Question: What about the GI50 (HOP-62 NSCLC) of the same compound?
Answer: 0.0306 µM

Question: What about the TGI (HOP-62 NSCLC) of the same compound?
Answer: 18.4 µM

Question: What about the GI50 (HOP-92 NSCLC) of the same compound?
Answer: 0.0362 µM

Question: And the TGI (HOP-92 NSCLC)?
Answer: 13.4 µM

Question: And the GI50 (HS 578T breast)?
Answer: 0.0357 µM

Question: What about the TGI (HS 578T breast) of the same compound?
Answer: 23.3 µM

Question: And the GI50 (IGROV1 ovarian)?
Answer: 0.0797 µM

Question: What about the TGI (IGROV1 ovarian) of the same compound?
Answer: 26.2 µM

Question: What about the GI50 (K-562 leukemia) of the same compound?
Answer: < 0.01 µM

Question: What about the TGI (K-562 leukemia) of the same compound?
Answer: > 100 µM

Question: And the GI50 (KM12 colon)?
Answer: 0.034 µM

Question: What about the TGI (KM12 colon) of the same compound?
Answer: 13.8 µM

Question: And the GI50 (LOX IMVI melanoma)?
Answer: 0.0382 µM

Question: What about the TGI (LOX IMVI melanoma) of the same compound?
Answer: 17.2 µM

Question: And the GI50 (M14 melanoma)?
Answer: 0.017 µM

Question: What about the TGI (M14 melanoma) of the same compound?
Answer: 13.6 µM

Question: And the GI50 (MCF7 breast)?
Answer: 0.412 µM

Question: What about the TGI (MCF7 breast) of the same compound?
Answer: 14.9 µM

Question: And the GI50 (MDA-MB-231 breast)?
Answer: 0.0797 µM

Question: And the TGI (MDA-MB-231 breast)?
Answer: 22.6 µM

Question: What about the GI50 (MOLT-4 leukemia) of the same compound?
Answer: 0.0539 µM

Question: And the TGI (MOLT-4 leukemia)?
Answer: 20.4 µM

Question: What about the GI50 (NCI-H226 lung) of the same compound?
Answer: 2.81 µM

Question: What about the TGI (NCI-H226 lung) of the same compound?
Answer: 22.6 µM

Question: What about the GI50 (NCI-H23 lung) of the same compound?
Answer: 0.0623 µM

Question: And the TGI (NCI-H23 lung)?
Answer: 22.2 µM

Question: What about the GI50 (NCI-H460 lung) of the same compound?
Answer: 0.0305 µM

Question: And the TGI (NCI-H460 lung)?
Answer: 12.5 µM

Question: And the GI50 (NCI-H522 lung)?
Answer: < 0.01 µM

Question: What about the TGI (NCI-H522 lung) of the same compound?
Answer: 1.57 µM

Question: And the GI50 (NCI/ADR-RES ovarian)?
Answer: < 0.01 µM

Question: What about the TGI (NCI/ADR-RES ovarian) of the same compound?
Answer: 29.1 µM

Question: What about the GI50 (OVCAR-3 ovarian) of the same compound?
Answer: < 0.01 µM

Question: And the TGI (OVCAR-3 ovarian)?
Answer: 14.6 µM

Question: And the GI50 (OVCAR-5 ovarian)?
Answer: 0.0362 µM

Question: What about the TGI (OVCAR-5 ovarian) of the same compound?
Answer: 19 µM

Question: And the GI50 (OVCAR-8 ovarian)?
Answer: 0.0401 µM

Question: What about the TGI (OVCAR-8 ovarian) of the same compound?
Answer: 15.9 µM

Question: What about the GI50 (PC-3 prostate) of the same compound?
Answer: 0.0185 µM

Question: What about the TGI (PC-3 prostate) of the same compound?
Answer: 17.5 µM

Question: And the GI50 (RPMI-8226 leukemia)?
Answer: 0.0366 µM

Question: And the TGI (RPMI-8226 leukemia)?
Answer: 14.5 µM

Question: What about the GI50 (SF-268 CNS) of the same compound?
Answer: 1.53 µM

Question: And the TGI (SF-268 CNS)?
Answer: 19.5 µM

Question: And the GI50 (SF-295 CNS)?
Answer: < 0.01 µM

Question: What about the TGI (SF-295 CNS) of the same compound?
Answer: 15.3 µM

Question: What about the GI50 (SF-539 CNS) of the same compound?
Answer: 0.0227 µM

Question: And the TGI (SF-539 CNS)?
Answer: 0.0822 µM

Question: And the GI50 (SK-MEL-2 melanoma)?
Answer: 0.0389 µM

Question: And the TGI (SK-MEL-2 melanoma)?
Answer: 21.7 µM

Question: What about the GI50 (SK-MEL-28 melanoma) of the same compound?
Answer: 0.0673 µM

Question: What about the TGI (SK-MEL-28 melanoma) of the same compound?
Answer: 20.7 µM

Question: What about the GI50 (SK-MEL-5 melanoma) of the same compound?
Answer: 0.0453 µM

Question: And the TGI (SK-MEL-5 melanoma)?
Answer: 1.96 µM

Question: And the GI50 (SK-OV-3 ovarian)?
Answer: 0.017 µM

Question: And the TGI (SK-OV-3 ovarian)?
Answer: 5.48 µM

Question: And the GI50 (SN12C renal)?
Answer: 0.0769 µM

Question: And the TGI (SN12C renal)?
Answer: 28.2 µM

Question: And the GI50 (SNB-19 CNS)?
Answer: 0.0538 µM

Question: And the TGI (SNB-19 CNS)?
Answer: 23.5 µM

Question: And the GI50 (SR leukemia)?
Answer: 0.0153 µM

Question: And the TGI (SR leukemia)?
Answer: 19.7 µM

Question: What about the GI50 (SW-620 colon) of the same compound?
Answer: 0.0218 µM

Question: What about the TGI (SW-620 colon) of the same compound?
Answer: 16 µM

Question: And the GI50 (T-47D breast)?
Answer: 1.04 µM

Question: And the TGI (T-47D breast)?
Answer: 17.1 µM

Question: What about the GI50 (TK-10 renal) of the same compound?
Answer: 12.8 µM

Question: What about the TGI (TK-10 renal) of the same compound?
Answer: 43 µM

Question: What about the GI50 (UACC-257 melanoma) of the same compound?
Answer: 6.77 µM

Question: What about the TGI (UACC-257 melanoma) of the same compound?
Answer: 21.3 µM

Question: And the GI50 (UACC-62 melanoma)?
Answer: < 0.01 µM

Question: What about the TGI (UACC-62 melanoma) of the same compound?
Answer: 12.8 µM

Question: What about the GI50 (UO-31 renal) of the same compound?
Answer: 0.0537 µM

Question: What about the TGI (UO-31 renal) of the same compound?
Answer: 18.6 µM
